# Results from patent US7094802B2, “PKB-3564 substance with neovascularization inhibitory activity” (Riken, priority 2001, dated 2006).
# How the values were obtained:
# [1] = system: Jurkat cells; assay: Suppression of Fas antibody-induced apoptosis, survival rate by MTT method; format: cell-based; conditions: Homo sapiens, Fas antibody CH-11 100 ng/ml, 6 hours, read-out: concentration that inhibited 50% of apoptosis induced by Fas antibody
# Procedure: Jurkat cells, an […] T cell leukemia cell line expressing Fas, were used as Fas antibody sensitive cells. The Jurkat cells were cultured in a RPMI medium containing 10% calf serum in an incubator that contained 5% carbon dioxide and was saturated with stream. The Jurkat cells in the logarithmic proliferation period were added with RKB-3564A, RKB-3564B, RKB-3564D, RKB-3564E, and RKB-3564F in a series of dilution, and cultured in the presence of Fas antibody, CH-11 (Medical & Biological Laboratories Co., Ltd., 100 ng/ml) for 6 hours, and the survival rate of the cells was assayed by the MTT method. The survival rate was calculated according to the following formula. Survival rate (%)={[(absorbance in the presence of anti-Fas antibody and the compound)−(absorbance in the presence of anti-Fas antibody and in the absence of the compound)]/[(absorbance in the absence of anti-Fas antibody and the compound)−(absorbance in the presence of anti-Fas antibody and in the absence of the compound)]}×100
# [2] = Solubility in solvents
Solubility in methanol or dimethyl sulfoxide ([2]; methanol or dimethyl sulfoxide),Solubility in n-hexane ([2]; n-hexane),Structure (SMILES),IC50 [1] [µg/mL]
easily soluble,Insoluble,CC1OC2C3=C(C(=O)C4OC4C3O)C1C1C3=C(C(O)C4OC4C3=O)C2OC1C (centres unmarked) [RKB-3564D],3 to 10
–,–,"CC1OC2C3=C(C(=O)C4OC4C3O)C1C1C(C)OC=C3C(O)C4OC4C(=O)C321 (single isomer, unassigned) [RKB-3564A]",3 to 10
–,–,CC1OC2C3=C(C(=O)C4OC4C3O)C1C1C(C)OC=C3C(O)C4OC4C(=O)C321 (centres unmarked) [RKB-3564E],3 to 10
